Measurements published in US20230228760A1, “INTRACELLULAR KINASE ASSOCIATED WITH RESISTANCE AGAINST T-CELL MEDIATED CYTOTOXICITY, AND USES THEREOF” (iOmx Therapeutics AG, priority 2020, published 2023).

B1: TRAIL: recombinant human TNF-related apoptosis-inducing ligand (protein, UniProt P50591 1-281, looked up)
Tumor necrosis factor ligand …: MAMMEVQGGPSLGQTCVLIVIFTVLLQSLCVAVTYVYFTNELKQMQDKYSKSGIACFLKEDDSYWDPNDEESMNSPCWQVKWQLRQLVRKMILRTSEETISTVQEKQQNISPLVRERGPQRVAAHITGTRGRSNTLSSPNSKNEKALGRKINSWESSRSGHSFLSNLHLRNGELVIHEKGFYYIYSQTYFRFQEEIKENTKNDKQMVQYIYKYTSYPDPILLMKSARNSCWSKDAEYGLYSIYQGGIFELKENDRIFVSVTNEHLIDMDHEASFFGAFLVG
B2: FasL (protein)
chain: PSPPPEKKELRKVAHLTGKSNSRSMPLEWEDTYGIVLLSGVKYKKGGLVINETGLYFVYSKVYFRGQSCNNLPLSHKVYMRNSKYPQDLVMMEGKMMSYCTTGQMWARSSYLGAVFNLTSADHLYVNVSELSLVNFEESQTFFGLYKL

Legend:
CAMK1D = CAMK1D protein knockdown by western blot; assay type: cell-based, human; details: KMM-1 cells, 48h after transfection
Protocol: (§1) Gene knockdown in tumor cells was induced using reverse siRNA transfection with Lipofectamine RNAiMAX (Thermo Scientific). Briefly, 200 μL of 250 nM siRNA solution was added to each well of a 6-well plate. 4 μl of RNAiMAX transfection reagent was diluted in 196 μL of RPMI (Sigma-Aldrich) and incubated for 10 min at room temperature (RT). 400 μL of additional RPMI was added and 600 μL of RNAiMAX mix was given to the siRNA coated wells and incubated for 30 min at RT. 3.5×10^5 KMM-1 (WT or luc) cells were resuspended in 1.2 mL of antibiotic-free RPMI culture medium supplemented with 10% FCS, seeded in the siRNA-RNAiMAX containing wells and incubated for 48 h at 37° C., 5% CO2. Final siRNA concentration was 25 nM in all cases.
30 μg of protein lysates were denaturated in 4×NuPAGE LDS Sample Buffer (Thermo Scientific) containing 100% ß-mercaptoethanol (PAN) at 70° C. for 10 min. Samples were spun down and separated on NuPAGE 4-12% Bis-Tris Gels (Thermo Scientific) along with PageRuler Prestained Protein Ladder (Thermo Scientific) and run at 115-150 V for 90 min.
Proteins were transferred from the gel to a PVDF membrane (Millipore) using a semi-dry western blot method. The PVDF blotting membrane (Merck Millipore) was activated in 100% methanol (Merck Millipore) for 1 min and afterwards placed in Transfer Buffer (Thermo Science) until use. Blots were assembled from anode to cathode into the Pierce Power Blot cassette (Thermo Scientific) and run at 24 V for 10 min. Membranes were washed in ix TBS and then placed in blocking solution (5% BSA/0.05% TBST) for 2 h. […] The blots were incubated with the ECL Detection Reagent (Reagent A and Reagent B, 1:1, GE Healthcare) for 4 min and the chemiluminescence was detected with myECL Imager (Thermo Scientific).

CAMK1D mRNA = CAMK1D mRNA knockdown by qPCR; assay type: cell-based, human; details: KMM-1 cells, 48h after transfection, normalized to β-actin
Protocol: Gene expression was measured using end-point PCR. Briefly, total RNA was isolated from cell pellets using the RNeasy Mini kit (Qiagen) according to the manufacturer's guidelines. 1 μg of RNA was reverse transcribed to complementary DNA (cDNA) using the QuantiTect reverse transcription kit (Qiagen) according to the manufacturer's protocol. Synthesized cDNA was amplified using conventional PCR. PCR samples were set up in a 25 μL volume using 2×MyTaq HS Red Mix (Bioline), 500 nM of gene-specific primer mix and 100 ng of template cDNA. The PCR program was set as the following: 95° C. for 3 min, 35 cycles of 3 repetitive steps of denaturation (95° C. for 30 s), annealing (60° C. for 30 s) and extension (72° C. for 30 s), and a final step at 72° C. for 5 min. PCR products were run on a 2% agarose gel in TAE buffer using a gel electrophoresis system (Thermo Scientific) and DNA bands were visualized using UV light of myECL Imager (Thermo Scientific). Knockdown efficiency of siRNA sequences was measured by quantitative PCR (qPCR). For qPCR, 10 ng of template cDNA, 2× QuantiFast SYBR Green PCR mix (Qiagen) and 300 nM of gene-specific primer mix was used per 20 μL reaction and each sample was prepared in triplicates. Reactions were run using the QuantStudio 3 (Applied Biosystems). Expression of several genes was normalized to the expression of β-actin gene and the analysis was performed using comparative Ct method.
as §1, with “Final siRNA concentration was 25 nM in all cases.” left out

KMM-1-luc cells [1] = assay: luciferase-based cytotoxicity assay of siRNA-transfected tumour cells co-cultured with MILs; assay type: cell-based, human; details: for T cell mediated cytotoxicity: co-culture with MILs, 10:1 E:T ratio; for viability impact of siRNA per se: viability setting, culture medium instead of T cells
Protocol: as §1
(§2) KMM-1-luc cells were reverse transfected with the desired siRNA sequences in white 96-well-plate (Perkin Elmer) and incubated for 48 h at 37° C., 5% CO2. At the same day of transfection MILs were thawn and treated with benzonase (too IU/mL) (Merck). Cell density was adjusted to 0.6×10^6 cells/mL in CLM supplemented with 3000 IU/mL rhuIL-2 (Novartis) for 48 h. IL-2 was depleted 24 h before the co-culture. Flu TC were thawn 6 h before co-culture. For the cytotoxicity setting, MILs, flu TC, the supernatant of activated MILs or rHuFasL were added to transfected tumor cells at desired E:T ratio/concentration, and incubated for 20 h at 37° C., 5% CO2. For the viability setting, only CLM was added to the tumor cells. After co-culture, supernatant was removed, remaining tumor cells were lysed using 40 μL/well of cell lysis buffer for 10 min. After tumor cell lysis, 60 μL/well of luciferase assay buffer was added and luciferase intensity was measured by using the Spark 20M plate reader (Tecan) with a counting time of 100 msec. Luciferase activities (relative luminescence units=RLUs) were either represented as raw luciferase values or as normalized data to scramble or unstimulated controls.

KMM-1-luc cells [2] = assay: blocking assay: CAMK1D inhibitor plus rHuFasL, luciferase-based cytotoxicity assay; assay type: cell-based, human; details: KMM-1 multiple myeloma cells; rHuFasL 100 ng/mL, 20 h
Protocol: as §2, with “controls. For the experiments using the anti-Calmodulin (W7) (Tocris) inhibitor, 1×10^4 KMM-1-luc (scr or CAMK1D-transfected) cells/well were seeded in white 96 well plates (Perkin Elmer) in 100 μL of RPMI 10% FCS. […]” for “controls.”

Mel270 cells = assay: as above; assay type: cell-based, human; details: Mel270 uveal melanoma cells; rHuFasL 100 ng/mL, 20 h
Protocol: as §2, with “controls. For the experiments using the anti-Calmodulin (W7) (Tocris) inhibitor, 1×10^4 KMM-1-luc (scr or CAMK1D-transfected) cells/well were seeded in white 96 well plates (Perkin Elmer) in 100 μL of RPMI 10% FCS. […]” for “controls.”

[3] = target: T1, recombinantly expressed CAMK1D protein kinase (Homo sapiens, UniProt Q8IU85); assay: radiometric protein kinase assay (33PanQinase Activity Assay) of CAMK1D kinase activity; assay type: biochemical; details: 10 concentrations (1x10-05 M to 3x10-10 M), singlicate; read-out: IC50 of CAMK1D kinase inhibition
T1 construct: purchased ProQinase (Freiburg, Germany)
Protocol: QPP was identified as CAMK1D inhibitor in a radiometric protein kinase assay (PanQinase® Activity Assay) used for measuring the kinase activity of a recombinantly expressed CAMK1D protein kinase. All assays were performed with a BeckmanCoulter/SAGIAN™ Core System.

KMM-1-luc cells [4] = assay: blocking assay: CaM inhibitor (W7) with or without rHuFasL, luciferase-based cytotoxicity assay; assay type: cell-based, human
Protocol: as §2
For the experiments using the anti-Calmodulin (W7) (Tocris) inhibitor, 1×10^4 KMM-1-luc (scr or CAMK1D-transfected) cells/well were seeded in white 96 well plates (Perkin Elmer) in 100 μL of RPMI 10% FCS. The small molecule inhibitor was added at the indicated concentrations for 1 h at 37° C., before 100 ng/mL rHuFasL or medium control was added. DMSO treatment served as negative control. After 20 h stimulation, luciferase-based cytotoxicity assay was performed. For CAMK1D inhibition, 1×10^4 KMM-1-luc or 1×10^4 Mel270 cells/well were incubated overnight in a 96 well plate. OMX2001 was added at the indicated concentrations 1 h before rHuFasL stimulation (100 ng/mL) or medium control. DMSO treatment served as negative control. After 20h stimulation, luciferase-based cytotoxicity assay was performed.

KMM-1-luc cells [5] = assay: treatment of scr or siCAMK1D transfected cells with recombinant FasL, TRAIL or TNF, luciferase activity; assay type: cell-based, human; details: siCAMK1D transfected KMM-1, 20h treatment
Protocol: as §2

Row | Molecule | CAMK1D expression at protein level (CAMK1D) | CAMK1D expression at mRNA level (CAMK1D mRNA) | T cell mediated cytotoxicity (KMM-1-luc cells [1]) | viability impact of siRNA per se (KMM-1-luc cells [1]) | also measured
1 | s3: siRNA targeting hCAMK1D, CCGAAAAUCUCUUGUACUA, Dharmacon D-004946-03, SEQ ID NO. 5 (listed as RNA, chemistry not given here) | significantly reduced CAMK1D expression | significantly reduced CAMK1D expression | increased T cell mediated cytotoxicity | no viability impact | 
2 | s1: siRNA targeting hCAMK1D, UGAAGUGUAUCCCUAAGAA, Dharmacon D-004946-01, SEQ ID NO. 3 (chemistry not given here) | significantly reduced CAMK1D expression | significantly reduced CAMK1D expression | increased T cell mediated cytotoxicity | no viability impact | 
3 | Cc1cc(Nc2nc(-c3ccccc3)nc3ccccc23)n[nH]1 [QPP, (5-Methyl-1H-pyrazol-3-yl)-(2-phenylquinazolin-4-yl)amine] |  |  |  |  | tumour cell viability (luciferase intensity) after inhibitor plus recombinant FasL (KMM-1-luc cells [2]): induced a significant tumour cell viability; tumour cell viability (luciferase intensity) after inhibitor plus recombinant FasL (Mel270 cells): induced a significant tumour cell viability; IC50 [3]: 2940 nM
4 | s2: siRNA targeting hCAMK1D, CAAAUCACCUGUACUUGGU, Dharmacon D-004946-02, SEQ ID NO. 4 (listed as RNA, chemistry not given here) | significantly reduced CAMK1D expression | significantly reduced CAMK1D expression | increased T cell mediated cytotoxicity | no viability impact | 
5 | Cl.NCCCCCCNS(=O)(=O)c1cccc2c(Cl)cccc12 [W-7 hydrochloride] |  |  |  |  | effect on FasL induced tumour cell apoptosis (KMM-1-luc cells [4]; 5 μM, with rHuFasL): sharply recapitulated the effect of CAMK1D silencing; toxicity to KMM-1 cells (tumour cell survival by luciferase intensity) (KMM-1-luc cells [4]; 5 μM, without rHuFasL): not toxic; further increase of FasL-mediated tumour cell killing (KMM-1-luc cells [4]; combination of W-7 hydrochloride with CAMK1D silencing, after FasL exposure): 3 fold
6 | B1 |  |  |  |  | reduction of CAMK1D-deficient tumour cells after exposure (KMM-1-luc cells [5]): to a much lesser degree
7 | B2 |  |  |  |  | reduction of CAMK1D-deficient tumour cells after exposure (KMM-1-luc cells [5]): dramatically reduced
